The values that follow come from US20260265329A1, “POLYPEPTIDE AND DERIVATIVE THEREOF, COMPOSITION, AND USE THEREOF” (HANGZHOU SCIWIND BIOSCIENCES CO., LTD., priority 2023, published 2026).

SMILES strings stand for the structures. Starred links: 1 amine or outer side, 2 acyl side, 3 side chain; linkers in the order of their positions; H or OH if unused. Non-standard residues stand in square brackets, D forms with d. Residues, ends and D or L forms follow the SMILES beside them. *: point of attachment. C20 diacid = O=C(O)CCCCCCCCCCCCCCCCCCC(=O)*; C18 diacid = O=C(O)CCCCCCCCCCCCCCCCC(=O)*; γGlu = O=C(O)[C@H](CCC(=O)[*:2])N[*:1]; βAsp = O=C(O)[C@H](CC(=O)[*:2])N[*:1]; Hyp = O=C(O)[C@@H]1C[C@@H](O)CN1; Trx = NC[C@H]1CC[C@H](C(=O)O)CC1; AEEA = NCCOCCOCC(=O)O; Inp = O=C(O)C1CCNCC1

This assay addresses T1, human amylin receptors (Homo sapiens, UniProt O60896+P30988).
T1 construct: host or cells: CHO-K1/Ga15/AMY3 cells, further stably transfected with a CRE-luciferase plasmid
T1 sequence (P30988 25-474): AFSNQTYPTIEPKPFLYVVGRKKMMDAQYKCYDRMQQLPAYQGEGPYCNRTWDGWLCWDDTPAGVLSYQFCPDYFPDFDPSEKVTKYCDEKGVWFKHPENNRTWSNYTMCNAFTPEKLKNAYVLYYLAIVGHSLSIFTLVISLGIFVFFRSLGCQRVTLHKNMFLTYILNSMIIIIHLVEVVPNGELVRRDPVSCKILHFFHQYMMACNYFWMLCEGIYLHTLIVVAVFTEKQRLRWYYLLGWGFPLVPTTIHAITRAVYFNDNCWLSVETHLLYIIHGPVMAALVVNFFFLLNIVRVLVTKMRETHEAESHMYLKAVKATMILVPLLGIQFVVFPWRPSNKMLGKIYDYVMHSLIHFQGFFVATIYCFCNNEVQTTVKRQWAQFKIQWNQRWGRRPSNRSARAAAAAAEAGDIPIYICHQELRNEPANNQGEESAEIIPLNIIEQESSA
T1 sequence (O60896 24-148 partner): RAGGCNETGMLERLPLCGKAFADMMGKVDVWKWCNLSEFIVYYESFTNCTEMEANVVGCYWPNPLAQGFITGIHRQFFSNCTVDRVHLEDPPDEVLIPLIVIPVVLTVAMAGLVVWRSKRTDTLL
As to the kind of experiment: Luciferase assay in stably transfected amylin receptor/CRE-luc CHO cell line. Format: cell-based. To be noted: for EC50: amylin receptor/CRE-luc CHO cells, 24 hours incubation, luminescence; for Relative activity: EC50 ratio of Cagrilintide to the compound, Cagrilintide 100%.

As for `CC[C@H](C)[C@H](NC(=O)[C@@H]1CCCN1C(=O)[C@H](CCCCN)NC(=O)[C@H](CC(C)C)NC(=O)[C@H](CC(N)=O)NC(=O)[C@H](CC(N)=O)NC(=O)[C@H](CO)NC(=O)[C@H](CO)NC(=O)[C@H](Cc1c[nH]cn1)NC(=O)[C@H](CCCNC(=N)N)NC(=O)[C@H](CC(C)C)NC(=O)[C@H](Cc1ccccc1)NC(=O)[C@H](CC(=O)O)NC(=O)[C@H](C)NC(=O)[C@H](CC(C)C)NC(=O)[C@H](CCCNC(=N)N)NC(=O)[C@H](CCC(N)=O)NC(=O)[C@@H](NC(=O)[C@H](C)NC(=O)[C@H](C)NC(=O)[C@@H](NC(=O)[C@H](CO)NC(=O)[C@H](CC(C)C)NC(=O)[C@H](CCC(N)=O)NC(=O)[C@H](CO)NC(=O)[C@H](C)NC(=O)COCCOCCNC(=O)COCCOCCNC(=O)C1CCN(C(=O)CCCCCCCCCCCCCCCCCCC(=O)O)CC1)[C@@H](C)O)[C@@H](C)O)C(=O)N[C@@H](CC(C)C)C(=O)N1CCC[C@H]1C(=O)N1CCC[C@H]1C(=O)N[C@H](C(=O)N[C@@H](CC(N)=O)C(=O)N[C@H](C(=O)NCC(=O)N[C@@H](CO)C(=O)N[C@@H](CC(N)=O)C(=O)N[C@H](C(=O)N1C[C@H](O)C[C@H]1C(N)=O)[C@@H](C)O)C(C)C)[C@@H](C)O` [M36] ({C20 diacid-Inp-AEEA-AEEA}-ASQLSTAATQRLADFLRHSSNNLKPILPPTNVGSNT[Hyp]-NH2), the EC50 amounted to 0.059 nM. `CC[C@H](C)[C@H](NC(=O)[C@H](CC(=O)O)NC(=O)[C@H](CCCNC(=N)N)NC(=O)[C@H](CC(=O)O)NC(=O)[C@H](CCCNC(=N)N)NC(=O)[C@H](CC(=O)O)NC(=O)[C@@H](NC(=O)[C@H](Cc1ccccc1)NC(=O)[C@H](Cc1c[nH]cn1)NC(=O)[C@H](CCCNC(=N)N)NC(=O)[C@H](CC(C)C)NC(=O)[C@H](Cc1ccccc1)NC(=O)[C@H](CC(=O)O)NC(=O)[C@H](C)NC(=O)[C@H](CC(C)C)NC(=O)[C@H](CCCNC(=N)N)NC(=O)[C@H](CCC(N)=O)NC(=O)[C@@H](NC(=O)[C@H](C)NC(=O)[C@H](C)NC(=O)[C@@H](NC(=O)[C@H](CO)NC(=O)[C@H](CC(C)C)NC(=O)[C@H](CCC(N)=O)NC(=O)[C@H](CO)NC(=O)[C@H](C)NC(=O)[C@H]1CC[C@H](CNC(=O)CCCCCCCCCCCCCCCCCCC(=O)O)CC1)[C@@H](C)O)[C@@H](C)O)[C@@H](C)O)C(=O)N[C@@H](CC(C)C)C(=O)N1CCC[C@H]1C(=O)N1CCC[C@H]1C(=O)N[C@H](C(=O)N[C@@H](CC(N)=O)C(=O)N[C@H](C(=O)NCC(=O)N[C@@H](CO)C(=O)N[C@@H](CC(N)=O)C(=O)N[C@H](C(=O)N1CCC[C@H]1C(N)=O)[C@@H](C)O)C(C)C)[C@@H](C)O` [M14] ({C20 diacid-Trx}-ASQLSTAATQRLADFLRHFTDRDRDILPPTNVGSNTP-NH2): the Relative activity amounted to 136%. Regarding `CC[C@H](C)[C@H](NC(=O)[C@H](CC(=O)O)NC(=O)[C@H](CCCNC(=N)N)NC(=O)[C@H](CC(=O)O)NC(=O)[C@H](CCCNC(=N)N)NC(=O)[C@H](CC(=O)O)NC(=O)[C@@H](NC(=O)[C@H](Cc1ccccc1)NC(=O)[C@H](Cc1c[nH]cn1)NC(=O)[C@H](CCCNC(=N)N)NC(=O)[C@H](CC(C)C)NC(=O)[C@H](Cc1ccccc1)NC(=O)[C@H](CC(=O)O)NC(=O)[C@H](C)NC(=O)[C@H](CC(C)C)NC(=O)[C@H](CCCNC(=N)N)NC(=O)[C@H](CCC(N)=O)NC(=O)[C@@H](NC(=O)[C@H](C)NC(=O)[C@H](C)NC(=O)[C@@H](NC(=O)[C@H](CO)NC(=O)[C@H](CC(C)C)NC(=O)[C@H](CCC(N)=O)NC(=O)[C@H](CO)NC(=O)[C@H](C)NC(=O)CC[C@H](NC(=O)CCCCCCCCCCCCCCCCC(=O)O)C(=O)O)[C@@H](C)O)[C@@H](C)O)[C@@H](C)O)C(=O)N[C@@H](CC(C)C)C(=O)N1CCC[C@H]1C(=O)N1CCC[C@H]1C(=O)N[C@H](C(=O)N[C@@H](CC(N)=O)C(=O)N[C@H](C(=O)NCC(=O)N[C@@H](CO)C(=O)N[C@@H](CC(N)=O)C(=O)N[C@H](C(=O)N1CCC[C@H]1C(N)=O)[C@@H](C)O)C(C)C)[C@@H](C)O` [M22] ({C18 diacid-γGlu}-ASQLSTAATQRLADFLRHFTDRDRDILPPTNVGSNTP-NH2), the Relative activity is given as 198% and it took 0.016 nM to reach a half-maximal effect (EC50). Taken in the same sequence, the figures for `CC[C@H](C)[C@H](NC(=O)[C@@H]1CCCN1C(=O)[C@H](CCCCN)NC(=O)[C@H](CC(C)C)NC(=O)[C@H](CC(N)=O)NC(=O)[C@H](CC(N)=O)NC(=O)[C@H](CO)NC(=O)[C@H](CO)NC(=O)[C@H](Cc1c[nH]cn1)NC(=O)[C@H](CCCNC(=N)N)NC(=O)[C@H](CC(C)C)NC(=O)[C@H](Cc1ccccc1)NC(=O)[C@H](CC(=O)O)NC(=O)[C@H](C)NC(=O)[C@H](CC(C)C)NC(=O)[C@H](CCCNC(=N)N)NC(=O)[C@H](CCC(N)=O)NC(=O)[C@@H](NC(=O)[C@H](C)NC(=O)[C@H](C)NC(=O)[C@@H](NC(=O)[C@H](CO)NC(=O)[C@H](CC(C)C)NC(=O)[C@H](CCC(N)=O)NC(=O)[C@H](CO)NC(=O)[C@H](C)NC(=O)[C@H](CCC(=O)O)NC(=O)CCCCCCCCCCCCCCCCCCC(=O)O)[C@@H](C)O)[C@@H](C)O)C(=O)N[C@@H](CC(C)C)C(=O)N1CCC[C@H]1C(=O)N1CCC[C@H]1C(=O)N[C@H](C(=O)N[C@@H](CC(N)=O)C(=O)N[C@H](C(=O)NCC(=O)N[C@@H](CO)C(=O)N[C@@H](CC(N)=O)C(=O)N[C@H](C(=O)N1C[C@H](O)C[C@H]1C(N)=O)[C@@H](C)O)C(C)C)[C@@H](C)O` [M26] ({C20 diacid}-EASQLSTAATQRLADFLRHSSNNLKPILPPTNVGSNT[Hyp]-NH2) were 103% and 0.049 nM. As to `CC[C@H](C)[C@H](NC(=O)[C@@H]1CCCN1C(=O)[C@H](CCCCN)NC(=O)[C@H](CC(C)C)NC(=O)[C@H](CC(N)=O)NC(=O)[C@H](CC(N)=O)NC(=O)[C@H](CO)NC(=O)[C@H](CO)NC(=O)[C@H](Cc1c[nH]cn1)NC(=O)[C@H](CCCNC(=N)N)NC(=O)[C@H](CC(C)C)NC(=O)[C@H](Cc1ccccc1)NC(=O)[C@H](CC(=O)O)NC(=O)[C@H](C)NC(=O)[C@H](CC(C)C)NC(=O)[C@H](CCCNC(=N)N)NC(=O)[C@H](CCC(N)=O)NC(=O)[C@@H](NC(=O)[C@H](C)NC(=O)[C@H](C)NC(=O)[C@@H](NC(=O)[C@H](CO)NC(=O)[C@H](CC(C)C)NC(=O)[C@H](CCC(N)=O)NC(=O)[C@H](CO)NC(=O)[C@H](C)NC(=O)[C@H]1CC[C@H](CNC(=O)CCCCCCCCCCCCCCCCCCC(=O)O)CC1)[C@@H](C)O)[C@@H](C)O)C(=O)N[C@@H](CC(C)C)C(=O)N1CCC[C@H]1C(=O)N1CCC[C@H]1C(=O)N[C@H](C(=O)N[C@@H](CC(N)=O)C(=O)N[C@H](C(=O)NCC(=O)N[C@@H](CO)C(=O)N[C@@H](CC(N)=O)C(=O)N[C@H](C(=O)N1C[C@H](O)C[C@H]1C(N)=O)[C@@H](C)O)C(C)C)[C@@H](C)O` [M29] ({C20 diacid-Trx}-ASQLSTAATQRLADFLRHSSNNLKPILPPTNVGSNT[Hyp]-NH2), the Relative activity is listed as 412%.

`CC[C@H](C)[C@H](NC(=O)[C@@H]1CCCN1C(=O)[C@H](CCCCN)NC(=O)[C@H](CC(C)C)NC(=O)[C@H](CC(N)=O)NC(=O)[C@H](CC(N)=O)NC(=O)[C@H](CO)NC(=O)[C@H](CO)NC(=O)[C@H](Cc1c[nH]cn1)NC(=O)[C@H](CCCNC(=N)N)NC(=O)[C@H](CC(C)C)NC(=O)[C@H](Cc1ccccc1)NC(=O)[C@H](CC(=O)O)NC(=O)[C@H](C)NC(=O)[C@H](CC(C)C)NC(=O)[C@H](CCCNC(=N)N)NC(=O)[C@H](CCC(N)=O)NC(=O)[C@@H](NC(=O)[C@H](C)NC(=O)[C@H](C)NC(=O)[C@@H](NC(=O)[C@H](CO)NC(=O)[C@H](CC(C)C)NC(=O)[C@H](CCC(N)=O)NC(=O)[C@H](CO)NC(=O)[C@H](C)NC(=O)C[C@H](NC(=O)CCCCCCCCCCCCCCCCCCC(=O)O)C(=O)O)[C@@H](C)O)[C@@H](C)O)C(=O)N[C@@H](CC(C)C)C(=O)N1CCC[C@H]1C(=O)N1CCC[C@H]1C(=O)N[C@H](C(=O)N[C@@H](CC(N)=O)C(=O)N[C@H](C(=O)NCC(=O)N[C@@H](CO)C(=O)N[C@@H](CC(N)=O)C(=O)N[C@H](C(=O)N1C[C@H](O)C[C@H]1C(N)=O)[C@@H](C)O)C(C)C)[C@@H](C)O` [M27] ({C20 diacid-βAsp}-ASQLSTAATQRLADFLRHSSNNLKPILPPTNVGSNT[Hyp]-NH2): the Relative activity is 78% and the EC50 is 0.064 nM. Taken in the same sequence, the figures for `CC[C@H](C)[C@H](NC(=O)[C@H](CC(=O)O)NC(=O)[C@H](CCCNC(=N)N)NC(=O)[C@H](CC(=O)O)NC(=O)[C@H](CCCNC(=N)N)NC(=O)[C@H](CC(=O)O)NC(=O)[C@@H](NC(=O)[C@H](Cc1ccccc1)NC(=O)[C@H](Cc1c[nH]cn1)NC(=O)[C@H](CCCNC(=N)N)NC(=O)[C@H](CC(C)C)NC(=O)[C@H](Cc1ccccc1)NC(=O)[C@H](CC(=O)O)NC(=O)[C@H](C)NC(=O)[C@H](CC(C)C)NC(=O)[C@H](CCCNC(=N)N)NC(=O)[C@H](CCC(N)=O)NC(=O)[C@@H](NC(=O)[C@H](C)NC(=O)[C@H](C)NC(=O)[C@@H](NC(=O)[C@H](CO)NC(=O)[C@H](CC(C)C)NC(=O)[C@H](CCC(N)=O)NC(=O)[C@H](CO)NC(=O)[C@H](C)NC(=O)COCCOCCNC(=O)COCCOCCNC(=O)[C@H](CC(=O)O)NC(=O)CCCCCCCCCCCCCCCCCCC(=O)O)[C@@H](C)O)[C@@H](C)O)[C@@H](C)O)C(=O)N[C@@H](CC(C)C)C(=O)N1CCC[C@H]1C(=O)N1CCC[C@H]1C(=O)N[C@H](C(=O)N[C@@H](CC(N)=O)C(=O)N[C@H](C(=O)NCC(=O)N[C@@H](CO)C(=O)N[C@@H](CC(N)=O)C(=O)N[C@H](C(=O)N1CCC[C@H]1C(N)=O)[C@@H](C)O)C(C)C)[C@@H](C)O` [M19] ({C20 diacid}-D[AEEA][AEEA]ASQLSTAATQRLADFLRHFTDRDRDILPPTNVGSNTP-NH2) were 80% and 0.036 nM.

For orientation: EC50 means the concentration needed to bring the measured effect to its halfway point. A higher EC50 goes with a need for much substance.
